Tests used:
α-CT = settings: pH 7.5, 25°C; ref Pochet et al (2000); cited from earlier work
HLE [1] = biological target: T1, HLE (Homo sapiens, UniProt P08246); settings: pH 8.0, 25°C; ref Pochet et al (2000); cited from earlier work
T1 construct: purchased Elastase Products Co
T1 sequence (P08246 30-267): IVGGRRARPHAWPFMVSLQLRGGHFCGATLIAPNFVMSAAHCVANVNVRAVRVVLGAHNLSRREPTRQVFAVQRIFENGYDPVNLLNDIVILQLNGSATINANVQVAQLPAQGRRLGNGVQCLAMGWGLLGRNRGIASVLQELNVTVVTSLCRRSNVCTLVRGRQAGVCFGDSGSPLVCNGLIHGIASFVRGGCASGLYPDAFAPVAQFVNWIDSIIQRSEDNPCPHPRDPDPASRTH

MDA-MB231 cells = experiment: Tumorigenicity of MDA-MB231 cells injected s.c. with matrigel in nude mice; type: in vivo; settings: 30 mg kg^−1 i.p. three times per week
Description: Matrigel (basement membrane proteins) was extracted from the mouse Engelbreth–Holm–Swarm (EHS) tumour as previously described ([Noël et al, 1991]). Tumoral cells were detached by trypsinisation, harvested by centrifugation, resuspended in 0.25 ml of serum-free medium and mixed with an equal volume of cold matrigel (10 mg ml^−1). The suspension (1 × 10^6 cells injection site^−1) was injected subcutaneously (s.c.) on both body flanks of 6–8-week-old female athymic nude mice (n=6; nu/nu Swiss mice from Iffa credo, L'Arbresle, France). The coumarin derivatives in PBS were injected intraperitoneally (30 mg kg^−1) three times per week during the whole assay.
The tumorigenicity defines the capacity of cells to induce tumour formation. The larger (a) and smaller (b) diameters of the apparent tumour were measured and served for tumour volume calculation according to a × b^2 × 0.4 ([Attia and Weiss, 1966]). Injected mice were examined weekly. Tumours presenting a volume higher than 80 mm^3 and which maintained a progressive growth were taken into account ([Noël et al, 1992]). Results are expressed as the mean (±s.e.m.) of the tumour volumes.

HLE [2] = biological target: T1, HLE; experiment: Inactivation of human leucocyte elastase (progress curve method); type: biochemical; settings: pH 8.0, 25°C, read-out: ki/KI or kobs/[I], HLE
Description: Bovine α-CT and LMW-uPA (MW=33 000 Da) were purchased from Sigma, HMW-uPA (MW=54 000 Da) from Choay, trypsin (TRY) and THR from Boehringer-Indelheim (Germany), and MMP-2 and MMP-9 from Calbiochem. Human leucocyte elastase and PM were from Elastase Products Co. and Biogenic, respectively. Except for THR, HMW-uPA, MMP-2 and MMP-9, enzyme concentrations were determined by active-site titrations using the appropriate titrant ([Bender et al, 1966]; [Chase and Shaw, 1970]; [Powers and Gupton, 1977]). […]
The kinetic parameters for the inhibition were determined either by the preincubation method for LMW-uPA and PM (small aliquots of the reaction mixture were withdrawn at intervals of time and the remaining activity determined), or by the progress curve method (HLE) when the inhibition was too fast to be measured accurately using the preincubation method. […]
At low inhibitor concentrations, the ratio ki/KI was obtained as kobs/[I]0. […] In the progress curve method, the substrate competes with the inhibitor and the kinetic parameters are determined as previously described ([Doucet et al, 1999]). […]

Structure (SMILES) | ki/KI or kobs/[I], α-CT (α-CT) | ki/KI or kobs/[I], HLE (HLE [1]) | effect on tumour incidence, MDA-MB231 (MDA-MB231 cells) | effect on tumour growth, MDA-MB231 (MDA-MB231 cells; ANOVA, P<0.05) | kinact/KI (HLE [2]) [M⁻¹ s⁻¹]
CC(=O)OCc1ccc2oc(=O)c(C(=O)Oc3cccc(Cl)c3)cc2c1 [compound 4, 3-chlorophenyl 6-acetoxymethyl-2-oxo-2H-1-benzopyran-3-carboxylate] | 20000^a M^−1 s^−1 | 1440^a M^−1 s^−1 | – | – | –
CC(=O)OCc1ccc2oc(=O)c(C(=O)Oc3cccc(Br)c3)cc2c1 [compound 7, 3-bromophenyl 6-acetoxy-methyl-2-oxo-2H-1-benzopyran-3-carboxylate] | – | – | did not affect tumour incidence | reduced significantly tumour growth | 2190

Reference: article PMC2376372, “3-Bromophenyl 6-acetoxymethyl-2-oxo-2H-1-benzopyran-3-carboxylate inhibits cancer cell invasion in vitro and tumour growth in vivo” (British Journal of Cancer, 2003)
